As a reminder, the IC50 is the point on the concentration scale where inhibition reaches its midpoint. As a reminder, the EC50 is the concentration that produces a half-maximal response. As usually defined, the CC50 is the concentration giving 50% cytotoxicity. A high value points to better tolerance by the cells.

Data set [1] deals with Hepatitis C virus. In words: Inhibition of HCV 1b NS5b polymerase. On the set-up: species or system Hepatitis C virus subtype 1b.
Data set [2] has as its system Hepatitis C virus. In words: Antiviral activity against Hepatitis C virus infected in human Huh7 cells assessed as inhibition of HCV replication. The format is functional, organism-based, Hepacivirus hominis. Particulars: Huh-7.
Data set [3] can be described thus: Cytotoxicity against human HuH7 cells. The format is cell-based, Huh-7.
A short description of data set [4]: Cytostatic activity against human MT4 cells. The format is cell-based.

For `Nc1ccn([C@@H]2O[C@H](CO)[C@@H](O)[C@H]2F)c(=O)n1`, in the data set with Hepatitis C virus [1], it took 1.85 µM to reach half-maximal inhibition (IC50).

With `O=c1ccn([C@@H]2O[C@H](COP(=O)(O)O)[C@@H](O)[C@H]2F)c(=O)[nH]1`, the EC50 with Hepatitis C virus [2] is over 250 µM. In addition, the CC50 in data set [3] was over 250 µM.

As for `CCCCOC(=O)[C@H](C)NP(=O)(CC[C@H]1O[C@@H](n2cnc3c(N)ncnc32)[C@H](F)[C@@H]1O)N[C@@H](C)C(=O)OCCCC`, the CC50 in data set [4] was 36 µM; in data set [3], 24 µM. In the data set with Hepatitis C virus [2], the concentration giving a half-maximal response (EC50) is 11 µM.

In the case of `Nc1ncnc2c1ncn2[C@@H]1O[C@H](/C=C/P(=O)(O)O)[C@@H](O)[C@H]1F` [listing 1 of 2 here], the 50% inhibitory concentration (IC50) in the data set on Hepatitis C virus [1] was determined as 2.1 µM.

In the case of `Nc1ccn([C@@H]2O[C@H](COP(=O)(O)O)[C@@H](O)[C@H]2F)c(=O)n1`, the 50% effective concentration (EC50) in the data set with Hepatitis C virus [2] came out at 15 µM. The 50% cytotoxic concentration (CC50) in data set [3] was over 250 µM.

On to `CCCCOC(=O)[C@H](C)NP(=O)(/C=C/[C@H]1O[C@@H](n2ccc(N)nc2=O)[C@H](F)[C@@H]1O)N[C@@H](C)C(=O)OCCCC`, for which the 50% cytotoxic concentration (CC50) in data set [4] and in data set [3] was over 250 µM throughout. Also, in the data set with Hepatitis C virus [2], the EC50 is 134 µM.

Take `Nc1ncnc2c1ncn2[C@@H]1O[C@H](/C=C/P(=O)(O)O)[C@@H](O)[C@H]1F` [listing 2 of 2 here]: the EC50 in the data set on Hepatitis C virus [2] stood at 132 µM. The same compound came in with a CC50 in data set [3] of over 250 µM.

For `O=c1ccn([C@@H]2O[C@H](/C=C/P(=O)(O)O)[C@@H](O)[C@H]2F)c(=O)[nH]1` [listing 1 of 2 here], in the data set on Hepatitis C virus [2], the 50% effective concentration (EC50) is over 250 µM. This compound also gave a CC50 in data set [3] of over 250 µM.

`Nc1ncnc2c1ncn2[C@@H]1O[C@H](CO)[C@@H](O)[C@H]1F` [2'-BETA-FLUORO-2',3'-DEOXYADENOSINE]: the IC50 in the data set with Hepatitis C virus [1] was 102 µM.

For the compound `O=c1ccn([C@@H]2O[C@H](/C=C/P(=O)(O)O)[C@@H](O)[C@H]2F)c(=O)[nH]1` [listing 2 of 2 here], in the data set on Hepatitis C virus [1], the IC50 came to 31 µM.

As for `O=c1ccn([C@@H]2O[C@H](CO)[C@@H](O)[C@H]2F)c(=O)[nH]1`, inhibition in the data set on Hepatitis C virus [1] was half-maximal at 12.8 µM (IC50).

In the case of `CCCCOC(=O)[C@H](C)NP(=O)(/C=C/[C@H]1O[C@@H](n2ccc(=O)[nH]c2=O)[C@H](F)[C@@H]1O)N[C@@H](C)C(=O)OCCCC`, the results for the CC50 in data set [4] and in data set [3] were 92 µM and over 250 µM, respectively. The EC50 with Hepatitis C virus [2] worked out at 14.5 µM.

`CCCCOC(=O)[C@H](C)NP(=O)(/C=C/[C@H]1O[C@@H](n2cnc3c(N)ncnc32)[C@H](F)[C@@H]1O)N[C@@H](C)C(=O)OCCCC`: the CC50 in data set [4] is 18 µM; in data set [3], 113 µM. The 50% effective concentration (EC50) in the data set on Hepatitis C virus [2] is 58 µM.

The compound `Nc1ccn([C@@H]2O[C@H](/C=C/P(=O)(O)O)[C@@H](O)[C@H]2F)c(=O)n1` [listing 1 of 2 here] came in with an IC50 with Hepatitis C virus [1] of 1.9 µM.

Turning to `Nc1ncnc2c1ncn2[C@@H]1O[C@H](COP(=O)(O)O)[C@@H](O)[C@H]1F`, the EC50 in the data set with Hepatitis C virus [2] was found to be 134 µM. The same compound yielded a CC50 in data set [3] of over 250 µM.

On to `Nc1ncnc2c1ncn2[C@@H]1O[C@H](CCP(=O)(O)O)[C@@H](O)[C@H]1F` [listing 1 of 2 here], for which, in the data set with Hepatitis C virus [1], half-maximal inhibition (IC50) required 4.6 µM.

With `Nc1ccn([C@@H]2O[C@H](/C=C/P(=O)(O)O)[C@@H](O)[C@H]2F)c(=O)n1` [listing 2 of 2 here], the EC50 in the data set with Hepatitis C virus [2] was determined as 76 µM. Also, the CC50 in data set [3] was over 250 µM.

On to `Nc1ncnc2c1ncn2[C@@H]1O[C@H](CCP(=O)(O)O)[C@@H](O)[C@H]1F` [listing 2 of 2 here], for which the concentration giving a half-maximal response (EC50) in the data set on Hepatitis C virus [2] was over 500 µM. In data set [3], this compound came in with a cytotoxic concentration (CC50) of over 500 µM.
